Results from article PMC11323223 (Bioorganic chemistry, 2022).
Several values for one entry are separate records, joined by “and”; a condition that tells them apart may be missing. Equal values may be shown once. Read-outs that look alike come from different tables or passages of the source.

What was measured:
FABP7 [1] = molecular target: T1, FABP7 (Homo sapiens, UniProt O15540); settings: read-out: FABP7 Ki; cited from earlier work
FABP3 [2] = molecular target: T2, FABP3 (Homo sapiens, UniProt P05413); settings: read-out: FABP3 Ki; cited from earlier work
FABP3 [3] = molecular target: T2, FABP3; experiment: Fluorescence displacement binding assay; settings: for Ki: read-out: FABP3 Ki, average ± S.E. of at least three independent experiments; for FABP3/7 SI (selectivity index): FABP3 over FABP7, from Ki values
FABP5 = FABP5 (Homo sapiens, UniProt Q01469); experiment: Fluorescence displacement binding assay; settings: for FABP5/3 SI (selectivity index): FABP5 over FABP3, from Ki values; for Ki: read-out: FABP5 Ki, average ± S.E. of at least three independent experiments; for FABP5/7 SI (selectivity index): FABP5 over FABP7, from Ki values
FABP7 [4] = molecular target: T1, FABP7; experiment: Fluorescence displacement binding assay; settings: for FABP7/3 SI (selectivity index): FABP7 over FABP3, from Ki values; for FABP7/5 SI (selectivity index): FABP7 over FABP5, from Ki values; for Ki: read-out: FABP7 Ki, average ± S.E. of at least three independent experiments
[5] = system: CFA-induced thermal hyperalgesia; experiment: CFA-induced thermal hyperalgesia; type: in vivo; settings: 20 mg/kg, i.p., mice, 90 min after administration, n = 6

T1 sequence (O15540 whole entry): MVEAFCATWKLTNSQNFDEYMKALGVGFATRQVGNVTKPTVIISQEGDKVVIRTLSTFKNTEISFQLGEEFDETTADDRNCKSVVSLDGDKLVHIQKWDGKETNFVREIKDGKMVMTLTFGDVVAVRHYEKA
T2 sequence (P05413 whole entry): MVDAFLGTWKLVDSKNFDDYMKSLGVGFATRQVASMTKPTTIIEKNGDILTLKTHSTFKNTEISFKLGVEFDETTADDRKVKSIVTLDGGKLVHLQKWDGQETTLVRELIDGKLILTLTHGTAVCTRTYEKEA
Sequence of FABP5 (Q01469 whole entry): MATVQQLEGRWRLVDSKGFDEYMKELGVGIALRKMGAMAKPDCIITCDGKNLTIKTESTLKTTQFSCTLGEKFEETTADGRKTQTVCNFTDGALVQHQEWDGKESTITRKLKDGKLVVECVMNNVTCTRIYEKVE

Row | SMILES | Ki (FABP7 [1]) | Ki (FABP3 [2]) | Ki (FABP3 [3]) | FABP5/3 SI (selectivity index) (FABP5) | Ki (FABP5) | FABP7/3 SI (selectivity index) (FABP7 [4]) | FABP7/5 SI (selectivity index) (FABP7 [4]) | Ki (FABP7 [4]) | FABP5/7 SI (selectivity index) (FABP5) | FABP3/7 SI (selectivity index) (FABP3 [3]) | effect on thermal hyperalgesia [5] | FABP3/5 SI (selectivity index) (FABP3 [3]; FABP3 over FABP5, from Ki values)
1 | COc1ccccc1C1[C@H](C(=O)O)[C@H](c2ccccc2OC)[C@H]1C(=O)OCC1c2ccccc2-c2ccccc21 (stereo partly shown) [L3] | 14300 ± 410 nM | 25300 ± 4570 nM | – | – | – | – | – | – | – | – | – | –
2 | N#Cc1ccc(-c2ccccc2OC(=O)C2C(c3ccccc3)C(C(=O)O)C2c2ccccc2)cc1 (stereo not shown) [γ-102, γ-3-(4′-Cyano-1,1′-biphenyl-2-yloxycarbonyl)-2,4-diphenylcyclobutane-1-carboxylic acid] | – | – | 5780 ± 1300 nM | 4.2 | 1390 ± 70 nM | 6.1 | 1.5 | 950 ± 50 nM | – | – | – | –
3 | COc1ccccc1C1C(C(=O)O)C(c2ccccc2OC)C1C(=O)Oc1ccc(OC)c2ccccc12 (stereo not shown) [γ-109, γ-3-(4-Methoxynaphthalen-1-yloxycarbonyl)-2,4-bis(2-methoxyphenyl)cyclobutane-1-carboxylic acid] | – | – | 3500 ± 630 nM | – | 26600 ± 1880 nM | 7.4 | 56.6 | 470 ± 80 nM | – | – | – | –
4 | O=C(O)C1C(c2ccccc2)C(C(=O)Oc2cccc(C3=CCOCC3)c2)C1c1ccccc1 (stereo not drawn) [α-21, α-3-(3-(3,6-Dihydro-2H-pyran-4-yl)phenoxycarbonyl)-2,4-diphenylcyclobutane-1-carboxylic acid] | – | – | 67900 ± 8870 nM | – | 1750 ± 70 nM | 81.8 | 2.1 | 830 ± 10 nM | 0.47 | – | – | –
5 | O=C(O)C1C(c2ccccc2)C(C(=O)Oc2ccccc2-c2ccc3c(c2)OCO3)C1c1ccccc1 (stereo not drawn) [α-11, α-3-(2-Benzo[d][1,3]dioxol-5-ylphenoxycarbonyl)-2,4-diphenylcyclobutane-1-carboxylic acid] | – | – | 1130 ± 150 nM | – | 790 ± 180 nM | 3.5 | 2.5 | 320 ± 130 nM | – | 0.28 | – | –
6 | COc1ccccc1C1C(C(=O)O)C(c2ccccc2OC)C1C(=O)OCc1cccc2ccccc12 (stereo not drawn) [α-23, α-3-(3-Naphthalen-1-ylmethoxycarbonyl)-2,4-bis(2-methoxyphenyl)cyclobutane-1-carboxylic acid] | – | – | 52600 ± 8620 nM | – | 2150 ± 170 nM | – | – | 8040 ± 710 nM | – | – | – | –
7 | O=C(O)C1C(c2ccccc2)C(C(=O)Oc2cccc(-c3ccc4ccc(=O)[nH]c4c3)c2)C1c1ccccc1 (stereo not shown) [γ-108, γ-3-(3-(2-Oxo-1,2-dihydroquinolin-7-yl)phenoxycarbonyl)-2,4-diphenylcyclobutane-1-carboxylic acid] | – | – | 4020 ± 360 nM | – | 10900 ± 2810 nM | – | – | 13800 ± 1300 nM | – | – | – | –
8 | COc1ccccc1C1C(C(=O)O)C(c2ccccc2OC)C1C(=O)Oc1cccc(-c2cccc3c2OCCO3)c1 (stereo not drawn) [α-6, α-3-(3-(2,3-dihydrobenzo[b][1,4]dioxin-5-yl)phenoxycarbonyl)-2,4-bis(2-methoxyphenyl)cyclobutane-1-carboxylic acid] | – | – | 4020 ± 1040 nM | 9.8 | 410 ± 150 nM | 4.4 | 0.45 | 910 ± 30 nM | 2.2 | – | – | –
9 | COc1ccccc1C1C(C(=O)O)C(c2ccccc2OC)C1C(=O)OC1Cc2ccccc2C1 (stereo not drawn) [α-16, α-3-(2,3-Dihydro-1H-inden-2-yloxycarbonyl)-2,4-bis(2-methoxyphenyl)cyclobutane-1-carboxylic acid] | – | – | 53800 ± 7280 nM | – | – | – | – | 21800 ± 4220 nM | – | – | full reversal of hyperalgesia | –
10 | O=C1CCc2cc(-c3cccc(OC(=O)C4C(c5ccccc5)C(C(=O)O)C4c4ccccc4)c3)ccc2N1 (stereo not drawn) [α-8, α-3-(3-(2-Oxo-1,2,3,4-tetrahydroquinolin-6-yl)phenox-ycarbonyl)-2,4-diphenyl-cyclobutane-1-carboxylic acid] | – | – | 7670 ± 710 nM | 13.0 | 590 ± 80 nM | 11.6 and 23.2 | 1.1 and 1.8 | – | 0.56 | – | – | –
11 | COc1ccccc1C1C(C(=O)O)C(c2ccccc2OC)C1C(=O)Oc1ccccc1-c1ccccc1 (stereo not drawn) [α-19, α-3-(1,1′-Biphenyl-2-yloxycarbonyl)-2,4-bis(2-methoxyphenyl) cyclobutane-1-carboxylic acid] | – | – | 210 ± 90 nM | – | 1590 ± 240 nM | – | – | 1360 ± 230 nM | – | 6.5 | – | 7.6
12 | O=C1CCc2cc(-c3cccc(OC(=O)C4C(c5ccccc5)C(C(=O)O)C4c4ccccc4)c3)ccc2N1 (stereo not shown) [γ-10, γ-3-(3-(2-Oxo-1,2,3,4-tetrahydroquinolin-6-yl)phenoxycarbonyl)-2,4-diphenyl-cyclobutane-1-carboxylic acid] | – | – | 4070 ± 240 nM | – | 7590 ± 1110 nM | – | – | 3490 ± 490 nM | – | – | – | –
13 | COc1ccccc1C1[C@H](C(=O)O)[C@H](c2ccccc2OC)[C@H]1C(=O)Oc1cccc2ccccc12 (stereo partly shown) [L2] | 670 ± 40 nM | 690 ± 170 nM | – | – | – | – | – | – | – | – | – | –
14 | O=C(O)C1C(c2ccccc2)C(C(=O)Oc2cccc3ccccc23)C1c1ccccc1 (stereo not drawn) [L1, α-truxillic acid 1‑naphthyl ester] | 450 ± 70 nM | 2700 ± 420 nM | – | – | – | – | – | – | – | – | – | –
15 | COc1ccccc1C1C(C(=O)O)C(c2ccccc2OC)C1C(=O)Oc1cccc(-c2cccc3c2OCCO3)c1 (stereo not shown) [γ-6, γ-3-(3-(2,3-Dihydrobenzo[b][1,4]dioxin-5-yl)phenoxycarbonyl)-2,4-bis(2-methoxyphenyl)cyclobutane-1-carboxylic acid] | – | – | 6860 ± 70 nM | 5.4 | 1260 ± 120 nM | – | – | 1780 ± 450 nM | 1.4 | – | – | –
